Measurements: publication PMC3386472 (Journal of Medicinal Chemistry, 2012)
“Also recorded” adds a separate entry of the source.

Key:
human D2 receptor = human D2 receptor (Homo sapiens, UniProt P14416); experiment: Stimulation of [35S]GTPγS binding, cloned human D2 receptor in CHO cells; details: [35S]GTPγS functional assay, % Emax vs DA
human D3 receptor = human D3 receptor (Homo sapiens, UniProt P35462); experiment: Stimulation of [35S]GTPγS binding, cloned human D3 receptor in CHO cells
reserpine-treated rats = experiment: Reversal of reserpine-induced hypolocomotion in rats; details: 5 µmol/kg, sc; for P compared to reserpine control (Dunnett's analysis post one-way ANOVA): horizontal locomotor activity; for Reversal of reserpine-induced hypolocomotion (horizontal activity): reserpine 5 mg/kg sc 18 h before, monitored 6 h
[1] = system: MPTP- and lactacystin-lesioned animal models; details: cited from earlier work

Chain of human D3 receptor (P35462 whole entry): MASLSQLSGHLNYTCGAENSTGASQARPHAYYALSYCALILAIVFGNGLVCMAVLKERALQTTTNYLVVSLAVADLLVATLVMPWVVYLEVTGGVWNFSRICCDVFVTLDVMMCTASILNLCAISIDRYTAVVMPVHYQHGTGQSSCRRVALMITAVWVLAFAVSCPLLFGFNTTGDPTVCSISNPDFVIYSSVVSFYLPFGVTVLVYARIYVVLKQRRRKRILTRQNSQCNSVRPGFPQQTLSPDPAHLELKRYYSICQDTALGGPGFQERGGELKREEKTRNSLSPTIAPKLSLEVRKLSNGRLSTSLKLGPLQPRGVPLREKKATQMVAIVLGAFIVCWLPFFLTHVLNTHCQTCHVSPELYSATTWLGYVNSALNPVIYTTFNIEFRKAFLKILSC
Chain of human D2 receptor (P14416 whole entry): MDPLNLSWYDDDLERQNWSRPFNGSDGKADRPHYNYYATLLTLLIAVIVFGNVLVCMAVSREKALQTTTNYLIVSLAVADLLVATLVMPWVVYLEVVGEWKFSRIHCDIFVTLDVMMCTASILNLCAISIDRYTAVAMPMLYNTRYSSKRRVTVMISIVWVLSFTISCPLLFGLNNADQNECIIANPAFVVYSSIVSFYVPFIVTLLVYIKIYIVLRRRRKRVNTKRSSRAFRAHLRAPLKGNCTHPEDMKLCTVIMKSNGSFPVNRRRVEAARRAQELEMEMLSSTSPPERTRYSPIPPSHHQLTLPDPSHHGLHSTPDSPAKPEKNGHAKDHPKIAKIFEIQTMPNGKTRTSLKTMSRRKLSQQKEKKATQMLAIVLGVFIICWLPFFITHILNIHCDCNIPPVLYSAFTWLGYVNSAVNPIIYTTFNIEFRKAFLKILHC

CCCN(CCN1CCN(C(=O)c2c[nH]c3ccccc23)CC1)[C@H]1CCc2nc(N)sc2C1 [Compound (−)-45, (S)-(4-{2-[(2-Amino-4,5,6,7-tetrahydrobenzothiazol-6-yl)propylamino]ethyl}piperazin-1-yl)-(1H-indol-3-yl)methanone]
Agonist activity at D2 receptor (in words) (human D2 receptor): full agonist activity
Agonist activity at D3 receptor (in words) (human D3 receptor; [35S]GTPγS functional assay, % Emax vs DA): full agonist activity

CCCN(CCN1CCN(c2nccc3ccccc23)CC1)[C@H]1CCc2nc(N)sc2C1 [Compound D-301]
Emax (human D3 receptor; CHO, read-out: hCHO-D3 % Emax): 102 ± 2%

CCCN(CCC)CCc1cccc2c1CC(=O)N2.Cl [ropinirole]
P compared to reserpine control (Dunnett's analysis post one-way ANOVA) (reserpine-treated rats): < 0.05
Reversal of reserpine-induced hypolocomotion (horizontal activity) (reserpine-treated rats): significant locomotor activation

CCCN(CCN1CCN(c2ccc3[nH]ccc3c2)CC1)[C@H]1CCc2nc(N)sc2C1 [Compound (−)-19, (S)-N^6-{2-[4-(1H-Indol-5-yl)piperazin-1-yl]ethyl}-N^6-propyl-4,5,6,7-tetrahydro benzothiazole-2,6-diamine]
P compared to reserpine control (Dunnett's analysis post one-way ANOVA) (reserpine-treated rats): < 0.01
Reversal of reserpine-induced hypolocomotion (horizontal activity) (reserpine-treated rats): significantly reversing akinesia; also recorded: significant, long-lasting reversal of hypolocomotion

CCCN(CCN1CCN(c2ccc(-c3ccccc3)cc2)CC1)[C@H]1CCc2nc(N)sc2C1 [Compound D-264]
Neuroprotection in PD animal models ([1]; MPTP and lactacystin models): neuroprotective
Behavioral syndromes in PD mouse models ([1]; acute MPTP and progressive lactacystin mouse models): significantly improved behavioral syndromes
